Source: patent US12012398B2, “Bicyclic compounds as androgen receptor modulators” (NIDO BIOSCIENCES, INC., priority 2021, dated 2024)
Where a name gives a salt, the structure may show the parent alone.

System: LNCaP cells expressing ARR2PB-FireflyLuc and CMV-RenillaLuc
Experiment: LNCaP ARR2PB-FireflyLuc reporter assay, antagonist mode;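 note: IC50 bins in nM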
Type: cell-based
Details: Homo sapiens, LNCaP, 48 h, +0.5 nM DHT, 48 h at 37° C., read-out: LNCap Antagonist Archive: IC50
Procedure: LNCaP cells expressing ARR2PB-FireflyLuc and CMV-RenillaLuc were treated with indicated concentrations of test compounds, enzalutamide (negative control), or DHT (positive control)+/−0.5 nM DHT for 48 h at 37° C. Fluorescent signals were read with the ImageXpress Micro Confocal System. Remaining activity (antagonist mode) was calculated as % Remaining Activity=100×[(ReadSample−LCave)/(HCave−LCave)] where HC is cells treated with 0.5 nM DHT only and LC is cells treated with 10 uM enzalutamide+0.5 nM DHT. Activation (agonist mode) was calculated as % Activation=100×[(ReadSample−LCave)/(HCave−LCave)] where HO is cells treated with 1 uM DHT and LC is cells treated with DMSO. Dose response curves and IC50 values were calculated using non-linear regression analysis in XLfit.
The designation “A” indicates an IC50 value of >10 μM, “B” indicates an IC50 value between 1 μM and 10 μM; “C” indicates an IC50 value between 100 nM and 1 μM; and “D” indicates an IC50 value of less than 100 nM.

SMILES | IC50 [µM]
Cc1nc(-c2c(C(=O)N(Cc3ccco3)C(C)C)[nH]c3cc(F)ccc23)ccc1N [Example 1, 3-(5-amino-6-methylpyridin-2-yl)-6-fluoro-N-(furan-2-ylmethyl)-N-isopropyl-1H-indole-2-carboxamide] | > 10
CC(C)N(Cc1ncco1)C(=O)c1cc2ccc(F)cc2[nH]1 [Example 2, 6-fluoro-N-isopropyl-N-(1,3-oxazol-2-ylmethyl)-1H-indole-2-carboxamide] | > 10
CC(C)N(Cc1ccco1)C(=O)c1cc2cccc(C#N)c2[nH]1 [Example 3, 7-cyano-N-(furan-2-ylmethyl)-N-isopropyl-1H-indole-2-carboxamide] | 1 to 10
CC(C)N(CC1CCCO1)C(=O)c1cc2ccc(F)cc2[nH]1 (centres unmarked) [Example 4, 6-fluoro-N-isopropyl-N-(oxolan-2-ylmethyl)-1H-indole-2-carboxamide] | > 10
CC(C)N(Cc1ccon1)C(=O)c1cc2ccc(F)cc2[nH]1 [Example 5, 6-fluoro-N-isopropyl-N-(1,2-oxazol-3-ylmethyl)-1H-indole-2-carboxamide] | 1 to 10
CC(C)N(Cc1cnco1)C(=O)c1cc2ccc(F)cc2[nH]1 [Example 6, 6-fluoro-N-isopropyl-N-(1,3-oxazol-5-ylmethyl)-1H-indole-2-carboxamide] | 1 to 10
CC(C)N(Cc1ccccn1)C(=O)c1cc2ccc(F)cc2[nH]1 [Example 7, 6-fluoro-N-isopropyl-N-(pyridin-2-ylmethyl)-1H-indole-2-carboxamide] | > 10
CC(C)N(Cc1ccno1)C(=O)c1cc2ccc(F)cc2[nH]1 [Example 8, 6-fluoro-N-isopropyl-N-(1,2-oxazol-5-ylmethyl)-1H-indole-2-carboxamide] | 1 to 10
CC(C)N(Cc1cccnc1)C(=O)c1cc2ccc(F)cc2[nH]1 [Example 9, 6-fluoro-N-isopropyl-N-(pyridin-3-ylmethyl)-1H-indole-2-carboxamide] | 1 to 10
CC(C)N(Cc1ccncc1)C(=O)c1cc2ccc(F)cc2[nH]1 [Example 10, 6-fluoro-N-isopropyl-N-(pyridin-4-ylmethyl)-1H-indole-2-carboxamide] | 1 to 10
CC(C)N(C(=O)c1cc2ccc(F)cc2[nH]1)c1ccccc1 [Example 11, 6-fluoro-N-isopropyl-N-phenyl-1H-indole-2-carboxamide] | 0.1 to 1
COCCN(C(=O)c1cc2ccc(F)cc2[nH]1)c1ccccc1 [Example 12, 6-fluoro-N-(2-methoxyethyl)-N-phenyl-1H-indole-2-carboxamide] | 1 to 10
CN(C(=O)c1cc2ccc(F)cc2[nH]1)c1ccccn1 [Example 13, 6-fluoro-N-methyl-N-(pyridin-2-yl)-1H-indole-2-carboxamide] | 1 to 10
CN(C(=O)c1cc2ccc(F)cc2[nH]1)c1cccnc1 [Example 14, 6-fluoro-N-methyl-N-(pyridin-3-yl)-1H-indole-2-carboxamide] | > 10
CN(C(=O)c1cc2ccc(F)cc2[nH]1)c1ccncc1 [Example 15, 6-fluoro-N-methyl-N-(pyridin-4-yl)-1H-indole-2-carboxamide] | > 10
CN(C(=O)c1cc2ccc(F)cc2[nH]1)c1cccc(C#N)c1 [Example 16, N-(3-cyanophenyl)-6-fluoro-N-methyl-1H-indole-2-carboxamide] | > 10
CN(C(=O)c1cc2ccc(F)cc2[nH]1)c1ccc(C#N)cc1 [Example 17, N-(4-cyanophenyl)-6-fluoro-N-methyl-1H-indole-2-carboxamide] | 1 to 10
CN(C(=O)c1cc2cccc(Cl)c2[nH]1)c1ccccc1 [Example 19, 7-chloro-N-methyl-N-phenyl-1H-indole-2-carboxamide] | 0.1 to 1
CN(C(=O)c1cc2cccc(C#N)c2[nH]1)C1CCCC1 [Example 20, 7-cyano-N-cyclopentyl-N-methyl-1H-indole-2-carboxamide] | 1 to 10
CN(C(=O)c1cc2cccc(C#N)c2[nH]1)c1ccccc1 [Example 21, 7-cyano-N-methyl-N-phenyl-1H-indole-2-carboxamide] | 0.1 to 1
CN(C(=O)c1[nH]c2ccccc2c1Cl)c1ccccc1 [Example 22, 3-chloro-N-methyl-N-phenyl-1H-indole-2-carboxamide] | > 10
CN(C(=O)c1nc2ccc(F)cc2[nH]1)c1ccccc1 [Example 23, 5-fluoro-N-methyl-N-phenyl-3H-1,3-benzodiazole-2-carboxamide] | > 10
CN(C(=O)c1cc2ccc(F)cc2o1)c1ccccc1 [Example 24, 6-fluoro-N-methyl-N-phenyl-1-benzofuran-2-carboxamide] | 1 to 10
CN(C(=O)c1cc2cccc(C(F)(F)F)c2[nH]1)c1ccccc1 [Example 25, N-methyl-N-phenyl-7-(trifluoromethyl)-1H-indole-2-carboxamide] | 0.1 to 1

SMILES | IC50 [µM]
CN(C(=O)c1cc2cccc(C(F)(F)F)c2[nH]1)c1ccccn1 [Example 26, N-methyl-N-(pyridin-2-yl)-7-(trifluoromethyl)-1H-indole-2-carboxamide] | 0.1 to 1
CN(C(=O)c1cc2cccc(C(F)(F)F)c2[nH]1)c1ccc(C#N)cc1 [Example 27, N-(4-cyanophenyl)-N-methyl-7-(trifluoromethyl)-1H-indole-2-carboxamide] | 1 to 10
CN(C(=O)c1cc2cccc(Cl)c2[nH]1)c1ccccn1 [Example 28, 7-chloro-N-methyl-N-(pyridin-2-yl)-1H-indole-2-carboxamide] | 1 to 10
CN(C)C(=O)c1cc2cccc(Cl)c2[nH]1 [Example 29, 7-chloro-N,N-dimethyl-1H-indole-2-carboxamide] | 1 to 10
CN(C(=O)c1cc2cccc(Cl)c2[nH]1)C1CCCC1 [Example 30, 7-chloro-N-cyclopentyl-N-methyl-1H-indole-2-carboxamide] | 0.1 to 1
CN(C(=O)c1cc2cccc(Cl)c2[nH]1)C1CCOC1 (centres unmarked) [Example 31, 7-chloro-N-methyl-N-(oxolan-3-yl)-1H-indole-2-carboxamide] | 0.1 to 1
CN(CC1CC1)C(=O)c1cc2cccc(Cl)c2[nH]1 [Example 32, 7-chloro-N-(cyclopropylmethyl)-N-methyl-1H-indole-2-carboxamide] | 1 to 10
CN(C(=O)c1cc2cccc(Cl)c2[nH]1)c1ccc(C#N)cc1 [Example 33, 7-chloro-N-(4-cyanophenyl)-N-methyl-1H-indole-2-carboxamide] | 1 to 10
CN(C(=O)c1cc2cccc(C#N)c2o1)c1ccc(F)cc1 [Example 34, 7-cyano-N-(4-fluorophenyl)-N-methyl-1-benzofuran-2-carboxamide] | > 10
CN(C(=O)c1cc2cccc(Cl)c2o1)c1ccc(F)cc1 [Example 35, 7-chloro-N-(4-fluorophenyl)-N-methyl-1-benzofuran-2-carboxamide] | 1 to 10
CN(C(=O)c1cc2cccc(C(F)(F)F)c2o1)c1ccc(F)cc1 [Example 36, N-(4-fluorophenyl)-N-methyl-7-(trifluoromethyl)benzofuran-2-carboxamide] | 1 to 10
CN(C(=O)c1cc2cccc(Cl)c2o1)c1ccccn1 [Example 37, 7-chloro-N-methyl-N-(pyridin-2-yl)-1-benzofuran-2-carboxamide] | > 10
CN(C(=O)c1cc2ccc(F)cc2o1)c1ccccn1 [Example 38, 6-fluoro-N-methyl-N-(pyridin-2-yl)-1-benzofuran-2-carboxamide] | > 10
CN(C(=O)c1cc2ccc(F)cc2o1)c1ccc(F)cc1 [Example 39, 6-fluoro-N-(4-fluorophenyl)-N-methyl-1-benzofuran-2-carboxamide] | 1 to 10
CN(C(=O)c1cc2cccc(Cl)c2[nH]1)C1CCNC1 (centres unmarked) [Example 40, 7-chloro-N-methyl-N-(pyrrolidin-3-yl)-1H-indole-2-carboxamide trifluoroacetic acid salt] | > 10
CC(C)N1CCC(N(C)C(=O)c2cc3cccc(Cl)c3[nH]2)C1 (centres unmarked) [Example 41, 7-chloro-N-(1-isopropylpyrrolidin-3-yl)-N-methyl-1H-indole-2-carboxamide] | > 10
CN(C(=O)c1cc2cccc(Cl)c2[nH]1)C1CCCNC1 (centres unmarked) [Example 42, 7-chloro-N-methyl-N-(piperidin-3-yl)-1H-indole-2-carboxamide] | > 10
CN(C(=O)c1cc2cccc(Cl)c2[nH]1)C1CCNCC1 [Example 43, 7-chloro-N-methyl-N-(piperidin-4-yl)-1H-indole-2-carboxamide] | > 10
CC(C)N1CCCC(N(C)C(=O)c2cc3cccc(Cl)c3[nH]2)C1 (centres unmarked) [Example 44, 7-chloro-N-(1-isopropylpiperidin-3-yl)-N-methyl-1H-indole-2-carboxamide] | > 10
CC(C)N1CCC(N(C)C(=O)c2cc3cccc(Cl)c3[nH]2)CC1 [Example 45, 7-chloro-N-(1-isopropylpiperidin-4-yl)-N-methyl-1H-indole-2-carboxamide] | > 10
NCCN(CC1CC1)C(=O)c1cc2cccc(Cl)c2[nH]1 [Example 47, N-(2-aminoethyl)-7-chloro-N-(cyclopropylmethyl)-1H-indole-2-carboxamide] | > 10
COCCN(C(=O)c1cc2ccc(F)cc2[nH]1)c1cnn(C)c1 [Example 49, 6-fluoro-N-(2-methoxyethyl)-N-(1-methylpyrazol-4-yl)-1H-indole-2-carboxamide] | > 10
COCCN(C(=O)c1cc2ccc(F)cc2[nH]1)c1ccc(C#N)cc1 [Example 51, N-(4-cyanophenyl)-6-fluoro-N-(2-methoxyethyl)-1H-indole-2-carboxamide] | 1 to 10
